Measured values: US4062950A, “Amino sugar derivatives” (priority 1973, dated 1977)

Columns and labels:
[1] = tested on: starch digestion; experiment: In vivo starch digestion inhibition (starch feeding test) in the fasting rat; conditions: for ED50: ED50, starch, fasting rat, Table VI; for in vivo inhibition of starch digestion, in words: compared with expectation from in vitro amylase inhibition
[2] = tested on: maltase; experiment: In vitro maltase test; format: biochemical, pig; conditions: Table II
Procedure: One maltase inhibitor unit (MIU) is defined as the amount of inhibitor which inhibits two maltase units to the extent of 50%. One maltase unit (MU) is the amount of enzyme which in one minute, under the test conditions specified below, splits 1 μmol of maltose into 2 μmol of glucose. The μmol of glucose formed are determined quantitatively by means of the glucose oxidase reaction under conditions such that further splitting of maltose by the maltase no longer takes place. To carry out the test, 0.05 ml of solubilized maltase [from the mucous membrane of the small intestine of the pig, according to B. Borgstrom, A, Dahlquist, Acta Chem, Scan. […] The mixture is equilibrated for 10 minutes at 35° C and 0.1 ml of an 0.05 M maltose solution in 0.1 M sodium maleate buffer of pH 6.0, pre-warmed to 35° C, is then added. The mixture is incubated for 20 minutes at 35° C and the maltase reaction is stopped by addition of 1 ml of the glucose oxidase reagent described above, and the incubation is continued for a further 30 minutes at 35° C. Thereafter, 1 ml of 50% strength sulfuric acid is added and a measurement carried out at 545 nm against a corresponding blank.

[3] = Solubility; format: physicochemical
[4] = tested on: glucose absorption; experiment: Effect on glucose absorption in fasting rats; format: in vivo, rat
Procedure: The produce an alimentary hyperglycemia and hyperinsulinaemia, groups of 6 fasting rats are given (a) 2.5 g of sucrose, (b) 2.5 g of maltose or (c) 1 g of boiled starch orally, in aqueous solution or suspension. Six other rats are given the same carbohydrates in the same amount and a glycoside hydrolase inhibitor in the amount indicated. In addition, six other rats are given an appropriate volume of saline. The blood glucose and the serum insulin are then measured at short intervals of time, in the blood from the retro-orbital venous plexus. Blood glucose determinations are carried out in the Auto-Analyser device (Technicon), according to Hoffmann: J. biol. Chem. 120, 51 (1937), or enzymatically by means of glucose oxidase and o-dianisidine hydrochloride and the serum insulin determinations are carried out according to the method of Hales and Randle: Biochem. J. 88, 137 (1963).

[5] = 1 g starch + 150 AIU oral, 5 Min.
[6] = 1 g starch + 150 AIU oral, 10 Min.
[7] = 1 g starch + 150 AIU oral, 15 Min.
[8] = 1 g starch + 150 AIU oral, 20 Min.
[9] = 1 g starch + 150 AIU oral, 30 Min.
[10] = 1 g starch + 150 AIU oral, 45 Min.
[11] = 1 g starch + 300 AIU oral, 5 Min.
[12] = 1 g starch + 300 AIU oral, 10 Min.
[13] = 1 g starch + 300 AIU oral, 15 Min.
[14] = 1 g starch + 300 AIU oral, 20 Min.
[15] = 1 g starch + 300 AIU oral, 30 Min.
[16] = 1 g starch + 300 AIU oral, 45 Min.

C[C@H]1O[C@H](O[C@H]2[C@H](O)[C@@H](O)C(O)O[C@@H]2CO)[C@H](O)[C@@H](O)[C@@H]1N[C@H]1C=C(CO)[C@@H](O)[C@H](O)[C@H]1O (stereo partly drawn) [Formula IIB, O-{4,6-bisdesoxy-4-[1 S-(1,4,6/5)-4,5,6-trihydroxy-3-hydroxymethylcyclohex-2-en-1-ylamino]-α-D-glucopyranosyl}-(1→4)-D-glucopyranose]
Blood Glucose (Mean ± SD) ([1]; 1 g starch + 75 AIU oral, 5 Min.): 102 ± 2.9 mg% | Blood Glucose (Mean ± SD) ([1]; 1 g starch + 75 AIU oral, 10 Min.): 130 ± 6.9 mg% | Blood Glucose (Mean ± SD) ([1]; 1 g starch + 75 AIU oral, 15 Min.): 128 ± 5.4 mg% | Blood Glucose (Mean ± SD) ([1]; 1 g starch + 75 AIU oral, 20 Min.): 143 ± 11 mg% | Blood Glucose (Mean ± SD) ([1]; 1 g starch + 75 AIU oral, 30 Min.): 125 ± 11 mg% | Blood Glucose (Mean ± SD) ([1]; 1 g starch + 75 AIU oral, 45 Min.): 132 ± 18 mg% | Blood Glucose (Mean ± SD) [1, 5]: 98 ± 8.7 mg% | Blood Glucose (Mean ± SD) [1, 6]: 116 ± 9.0 mg% | Blood Glucose (Mean ± SD) [1, 7]: 128 ± 5.8 mg% | Blood Glucose (Mean ± SD) [1, 8]: 127 ± 4.8 mg% | Blood Glucose (Mean ± SD) [1, 9]: 115 ± 5.2 mg% | Blood Glucose (Mean ± SD) [1, 10]: 137 ± 5.2 mg% | Blood Glucose (Mean ± SD) [1, 11]: 87 ± 13 mg% | Blood Glucose (Mean ± SD) [1, 12]: 106 ± 1.8 mg% | Blood Glucose (Mean ± SD) [1, 13]: 110 ± 8.9 mg% | Blood Glucose (Mean ± SD) [1, 14]: 111 ± 2.1 mg% | Blood Glucose (Mean ± SD) [1, 15]: 108 ± 5.3 mg% | Blood Glucose (Mean ± SD) [1, 16]: 121 ± 7.2 mg% | ED50 [1]: 0.76 mg/kg | in vivo inhibition of starch digestion, in words [1]: much higher than would be expected | Maltase Inhibition [2]: 5,000 MIU/g | solubility ([3]; water, dimethylformamide, dimethylsulfoxide, methanol and hot ethanol): good solubility

C[C@H]1O[C@H](O[C@H]2[C@H](O)[C@@H](O)[C@@H](O[C@H]3[C@H](O)[C@@H](O)C(O)O[C@@H]3CO)O[C@@H]2CO)[C@H](O)[C@@H](O)[C@@H]1N[C@H]1C=C(CO)[C@@H](O)[C@H](O)[C@H]1O (stereo partly drawn) [Formula IIIB, O-{4,6-bisdesoxy-4-[1 S-(1,4,6/5)-4,5,6-trihydroxy-3-hydroxymethylcyclohex-2-en-1-ylamino]-α-D-glucopyranosyl}-(1→4)-O-α-D-glucopyranosyl-(1→4)-D-glucopyranose]
Blood Glucose (Mean ± SD) ([4]; glucose + 30 mg, 15 Min.): 135 ± 13 mg% | Blood Glucose (Mean ± SD) ([4]; glucose + 30 mg, 30 Min.): 128 ± 5.5 mg% | Blood Glucose (Mean ± SD) ([4]; glucose + 30 mg, 45 Min.): 132 ± 7.3 mg% | Blood Glucose (Mean ± SD) ([4]; glucose + 60 mg, 15 Min.): 125 ± 13 mg% | Blood Glucose (Mean ± SD) ([4]; glucose + 60 mg, 30 Min.): 118 ± 2.9 mg% | Blood Glucose (Mean ± SD) ([4]; glucose + 60 mg, 45 Min.): 130 ± 9.0 mg% | Blood Glucose (Mean ± SD) [1, 5]: 82 ± 7.5 mg% | Blood Glucose (Mean ± SD) [1, 6]: 105 ± 4.2 mg% | Blood Glucose (Mean ± SD) [1, 7]: 120 ± 6.0 mg% | Blood Glucose (Mean ± SD) [1, 8]: 124 ± 7.0 mg% | Blood Glucose (Mean ± SD) [1, 9]: 134 ± 6.1 mg% | Blood Glucose (Mean ± SD) [1, 10]: 125 ± 5.2 mg% | Blood Glucose (Mean ± SD) [1, 11]: 79 ± 8.2 mg% | Blood Glucose (Mean ± SD) [1, 12]: 97 ± 2.7 mg% | Blood Glucose (Mean ± SD) [1, 13]: 105 ± 10 mg% | Blood Glucose (Mean ± SD) [1, 14]: 118 ± 6.7 mg% | Blood Glucose (Mean ± SD) [1, 15]: 119 ± 9.9 mg% | Blood Glucose (Mean ± SD) [1, 16]: 130 ± 5.9 mg% | Blood Glucose (Mean ± SD) ([1]; 1 g starch + 600 AIU oral, 5 Min.): 70 ± 4.6 mg% | Blood Glucose (Mean ± SD) ([1]; 1 g starch + 600 AIU oral, 10 Min.): 80 ± 8.8 mg% | Blood Glucose (Mean ± SD) ([1]; 1 g starch + 600 AIU oral, 15 Min.): 94 ± 6.9 mg% | Blood Glucose (Mean ± SD) ([1]; 1 g starch + 600 AIU oral, 20 Min.): 91 ± 16 mg% | Blood Glucose (Mean ± SD) ([1]; 1 g starch + 600 AIU oral, 30 Min.): 103 ± 9.2 mg% | Blood Glucose (Mean ± SD) ([1]; 1 g starch + 600 AIU oral, 45 Min.): 102 ± 4.2 mg% | Blood Glucose (Mean ± SD) ([1]; 1 g starch + 1,200 AIU oral, 5 Min.): 70 ± 7.0 mg% | Blood Glucose (Mean ± SD) ([1]; 1 g starch + 1,200 AIU oral, 10 Min.): 84 ± 7.7 mg% | Blood Glucose (Mean ± SD) ([1]; 1 g starch + 1,200 AIU oral, 15 Min.): 88 ± 7.4 mg% | Blood Glucose (Mean ± SD) ([1]; 1 g starch + 1,200 AIU oral, 20 Min.): 97 ± 5.2 mg% | Blood Glucose (Mean ± SD) ([1]; 1 g starch + 1,200 AIU oral, 30 Min.): 97 mg% | Blood Glucose (Mean ± SD) ([1]; 1 g starch + 1,200 AIU oral, 45 Min.): 100 ± 4.3 mg% | ED50 [1]: 1.6 mg/kg | in vivo inhibition of starch digestion, in words [1]: much higher than would be expected | Maltase Inhibition [2]: 15,000 MIU/g | water solubility [3]: readily water-soluble

C[C@H]1O[C@H](O[C@H]2[C@H](O)[C@@H](O)[C@@H](O[C@H]3[C@H](O)[C@@H](O)C(O)O[C@@H]3CO)O[C@@H]2CO)[C@H](O)[C@@H](O)[C@@H]1N[C@H]1C=C(CO)[C@@H](O[C@H]2O[C@H](CO)[C@@H](O)[C@H](O)[C@H]2O)[C@H](O)[C@H]1O (stereo partly drawn) [Formula V, O-{4,6-bisdesoxy-4-[1 S-(1,4,6/5)-4,5,6-trihydroxy-3-hydroxymethyl-4-O-α-D-glucopyranosyl-(1→4)-cyclohex-2-en-1-ylamino]-α-D-glycopyranosyl}-(1→4)-O-α-D-glucopyranosyl-(1→4)-D-glucopyranose]
Blood Glucose (Mean ± SD) ([1]; 1 g starch + 750 AIU oral, 5 Min.): 86 ± 8.5 mg% | Blood Glucose (Mean ± SD) ([1]; 1 g starch + 750 AIU oral, 10 Min.): 107 ± 5.0 mg% | Blood Glucose (Mean ± SD) ([1]; 1 g starch + 750 AIU oral, 15 Min.): 117 ± 8.7 mg% | Blood Glucose (Mean ± SD) ([1]; 1 g starch + 750 AIU oral, 20 Min.): 121 ± 12 mg% | Blood Glucose (Mean ± SD) ([1]; 1 g starch + 750 AIU oral, 30 Min.): 126 ± 11 mg% | Blood Glucose (Mean ± SD) ([1]; 1 g starch + 750 AIU oral, 45 Min.): 114 ± 3.6 mg% | Blood Glucose (Mean ± SD) ([1]; 1 g starch + 1,500 AIU oral, 5 Min.): 77 ± 14 mg% | Blood Glucose (Mean ± SD) ([1]; 1 g starch + 1,500 AIU oral, 10 Min.): 92 ± 9.6 mg% | Blood Glucose (Mean ± SD) ([1]; 1 g starch + 1,500 AIU oral, 15 Min.): 94 ± 9.5 mg% | Blood Glucose (Mean ± SD) ([1]; 1 g starch + 1,500 AIU oral, 20 Min.): 113 ± 9.7 mg% | Blood Glucose (Mean ± SD) ([1]; 1 g starch + 1,500 AIU oral, 30 Min.): 112 ± 8.8 mg% | Blood Glucose (Mean ± SD) ([1]; 1 g starch + 1,500 AIU oral, 45 Min.): 111 ± 4.2 mg% | Blood Glucose (Mean ± SD) ([1]; 1 g starch + 3,000 AIU oral, 5 Min.): 65 ± 5.6 mg% | Blood Glucose (Mean ± SD) ([1]; 1 g starch + 3,000 AIU oral, 10 Min.): 101 ± 3.3 mg% | Blood Glucose (Mean ± SD) ([1]; 1 g starch + 3,000 AIU oral, 15 Min.): 82 ± 11 mg% | Blood Glucose (Mean ± SD) ([1]; 1 g starch + 3,000 AIU oral, 20 Min.): 112 ± 4.5 mg% | Blood Glucose (Mean ± SD) ([1]; 1 g starch + 3,000 AIU oral, 30 Min.): 109 ± 6.4 mg% | Blood Glucose (Mean ± SD) ([1]; 1 g starch + 3,000 AIU oral, 45 Min.): 104 ± 2.5 mg% | ED50 [1]: 1.61 mg/kg | in vivo inhibition of starch digestion, in words [1]: much higher than would be expected | Maltase Inhibition [2]: 5,000 MIU/g
